In US7964604B2, “Bifeprunox mesylate maintenance dose compositions and methods for using the same” (Solvay Pharmaceuticals B.V., priority 2005, dated 2011):
Like-named read-outs stand apart in the source and are kept apart here.

What was measured:
[1] = Stability of polymorphic forms; type: physicochemical; details: for thermodynamic stability of the crystalline form: monomethanesulfonate
Text: During further investigations it appeared that polymorphs γ and δ are metastable, and therefore may have drawbacks when used in a pharmaceutical formulation. The unpredictable formation of one of the two polymorphs γ and δ or a mixture thereof is also undesirable. It would be desirable, therefore, to provide a stable crystalline form of 7-[4-([1,1′-biphenyl]-3-ylmethyl)-1-piperazinyl]-2(3H)-benzoxazolone monomethanesulfonate for pharmaceutical use which can be consistently produced.
Furthermore this crystalline form crystallizes in the form of large crystals which can be easily filtrated and have a high purity. Therefore this polymorph α is particularly suitable for the formulation of bifeprunox mesylate in a solid form, if desired after particle size reduction.

[2] = Tablet dissolution test (paddle method); type: physicochemical; details: McILvaine buffer pH 3.0
Experimental: Three different strengths of tablets (10 mg, 5 mg and 1 mg of bifeprunox mesylate) were prepared having the compositions shown in Table 10; the tablets were designated T1, T2 and T3, respectively.
Each of the tablets were placed in a dissolution test under the following conditions: Apparatus: paddle method; Stirring speed: 50 rpm; Amount of test dissolution medium: 900 ml; Temperature of dissolution medium: 37° C.±0.5° C.
Six different dissolution media were used as follows:
Media 1: Dissolve 2.0 g of sodium chloride dissolved in 7.0 ml of hydrochloric acid, q.s. with water to make 1000 ml (pH 1.2);
Media 2: McILvaine buffer solution (pH 3.0), pH adjusted with 0.05 mol/L of sodium hydrogen phosphate and 0.025 mol/L of citric acid;
Media 3: McILvaine buffer solution (pH 4.0);
Media 4: McILvaine buffer solution (pH 5.0);
Media 6: To 250 ml of 0.2 mol/L potassium dihydrogenphosphate TS add 118 ml of 0.2 mol/L sodium hydroxide TS and water to make 1000 ml.
Dissolution testing was performed in triplicate.

[3] = Pooled analysis of pharmacokinetic parameters in healthy subjects; type: in vivo, human
Text: (§1) The pharmacokinetics of bifeprunox in healthy subjects were investigated based on a pooled analysis of pharmacokinetic (PK) parameters from 21 clinical pharmacology studies. The pooled analysis included PK profiles obtained following single and multiple doses administered to 132 and 399 subjects, respectively, and explored the potential effects of age, gender, body weight and race. In addition, PK in patients (PTS) with schizophrenia were investigated using a population PK approach based on samples from 376 subjects in phase II studies and 434 subjects in phase III studies.
(§2) In healthy subjects and patients with schizophrenia, the maximum tolerated single dose of bifeprunox was 0.5 mg. Tolerance to dose-limiting side effects (nausea, dizziness, vomiting, and orthostatic hypotension) developed as the dosage was titrated upwards. All PK assessments at doses higher than 0.5 mg were performed following multiple dosages under steady-state conditions. Doses of 5-40 mg were administered in efficacy studies. PK parameters describing absorption, distribution, metabolism, and elimination were calculated based on non-compartmental analysis. PK parameter values from each study were combined to create a pooled dataset. The potential influence of gender, body weight, and race on bifeprunox PK was analyzed.

[4] = Population PK assessment in patients with schizophrenia; type: in vivo, human; details: schizophrenia patients (SP)
Text: as §1
A population-based PK assessment using compartmental methods was conducted in 810 patients with schizophrenia enrolled in several clinical studies.

[5] = Maximum tolerated single dose; type: in vivo, human; details: healthy subjects and patients with schizophrenia
Experimental: as §2

[6] = Administration with a high-fat meal; type: in vivo, human; details: 40 mg dose
Experimental: Bifeprunox was rapidly absorbed after oral administration. The median time to peak plasma concentration (Tmax) was approximately 2 hours. Multiple patients were dosed proportional in the 20 to 40 mg/day range (mean AUC0-24 for 20 mg: 381.5 ng·hr/mL and mean AUC0-24 for 40 mg: 825.1 ng·hr/mL). […] Absolute oral bioavailability of the bifeprunox tablets used in the pooled studies has not been determined.

plasma proteins = experiment: Plasma protein binding; type: in vitro ADME; details: human, healthy patients as well as those with renal or hepatic impairment, read-out: bound to plasma proteins
Text: Apparent volume of distribution (Vz/F) was 1300 L. Based upon the volume of distribution, bifeprunox was extensively distributed into the peripheral tissues. […] Bifeprunox was more than 99% bound to plasma proteins in healthy patients as well as those with renal or hepatic impairment.

CYP2C9 [7] = target: T1, CYP2C9 (Homo sapiens, UniProt P11712); experiment: In vitro metabolism; type: in vitro ADME; details: in vitro data
CYP3A4 [8] = target: T2, CYP3A4 (Homo sapiens, UniProt P08684); experiment: In vitro metabolism; type: in vitro ADME; details: in vitro data
In vitro metabolism = type: in vitro ADME; details: in vitro data, CYP2A4
[9] = PK in healthy subjects with reduced CYP2C enzyme activity; type: in vivo, human
[10] = Drug-drug interactions (co-administration); type: in vivo, human
Text: Co-administration with […] paroxetine had no effect on bifeprunox PK. Bifeprunox exposure was reduced by approximately 50% after co-administration with the CYP3A4 inducer carbamazepine. […] Bifeprunox had no effect on the PK and pharmacodynamics of warfarin and the PK of lithium. […] Administration of famotidine, an H2 antagonist that inhibits gastric acid secretion, had no effect on bifeprunox PK.

CYP2C9 [11] = target: T1, CYP2C9; experiment: Metabolism based on in vivo data; set-up: from tissue; host or cells: endogenous enzyme of clinical subjects (in vivo)
Experimental: (§3) Based on those pharmacokinetics, bifeprunox (an investigational partial dopamine agonist antipsychotic compound) was rapidly absorbed after oral administration. Multiple-dose PK of bifeprunox were dose proportional over the range of 20 to 40 mg doses. Bifeprunox was extensively distributed into peripheral tissues and highly protein bound. It was primarily eliminated in the feces. […] Bifeprunox has a low drug interaction potential with other drugs used in these studies (e.g. lithium, warfarin and famotidine).

CYP3A4 [12] = target: T2, CYP3A4; experiment: Metabolism based on in vivo data; set-up: from tissue; host or cells: endogenous enzyme of clinical subjects (in vivo)
Experimental: as §3

[13] = co-administration with carbamazepine
[14] = co-administration with fluconazole
[15] = co-administration with ketoconazole

T1 sequence (P11712 whole entry): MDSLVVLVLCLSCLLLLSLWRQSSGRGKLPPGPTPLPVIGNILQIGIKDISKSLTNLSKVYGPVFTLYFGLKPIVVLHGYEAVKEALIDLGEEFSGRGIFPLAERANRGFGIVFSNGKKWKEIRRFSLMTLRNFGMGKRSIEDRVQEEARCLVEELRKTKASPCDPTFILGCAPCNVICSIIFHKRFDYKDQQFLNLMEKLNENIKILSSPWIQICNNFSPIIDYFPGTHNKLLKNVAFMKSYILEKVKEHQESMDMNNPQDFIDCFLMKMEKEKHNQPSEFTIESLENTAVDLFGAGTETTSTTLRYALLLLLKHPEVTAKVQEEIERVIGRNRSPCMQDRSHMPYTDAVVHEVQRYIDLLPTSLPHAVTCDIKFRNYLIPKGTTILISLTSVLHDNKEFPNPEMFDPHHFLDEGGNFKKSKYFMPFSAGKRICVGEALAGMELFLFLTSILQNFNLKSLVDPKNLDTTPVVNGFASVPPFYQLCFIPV
T2 sequence (P08684 whole entry): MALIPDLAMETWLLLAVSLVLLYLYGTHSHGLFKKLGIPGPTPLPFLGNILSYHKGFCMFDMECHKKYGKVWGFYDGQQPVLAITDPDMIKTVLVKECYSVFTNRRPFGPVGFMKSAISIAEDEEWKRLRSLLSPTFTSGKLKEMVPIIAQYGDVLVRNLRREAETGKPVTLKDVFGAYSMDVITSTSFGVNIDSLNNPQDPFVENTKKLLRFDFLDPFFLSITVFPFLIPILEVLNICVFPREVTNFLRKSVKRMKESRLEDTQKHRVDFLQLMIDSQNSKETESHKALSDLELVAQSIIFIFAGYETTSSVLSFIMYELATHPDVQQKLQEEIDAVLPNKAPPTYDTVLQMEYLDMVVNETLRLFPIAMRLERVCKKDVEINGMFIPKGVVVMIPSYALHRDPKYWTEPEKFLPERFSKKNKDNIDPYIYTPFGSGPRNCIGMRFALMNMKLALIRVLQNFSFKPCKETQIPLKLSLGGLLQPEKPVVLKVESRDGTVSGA

Structure (SMILES): O=c1[nH]c2cccc(N3CCN(Cc4cccc(-c5ccccc5)c4)CC3)c2o1 [polymorph α, 7-[4-([1,1′-biphenyl]-3-ylmethyl)-1-piperazinyl]-2(3H)-benzoxazolone monomethanesulfonate]
- conversion of the polymorphic form ([1]; high atmospheric humidity or higher temperature): does not undergo conversion
- thermodynamic stability of the crystalline form [1]: more thermodynamically stable

Structure (SMILES): O=c1[nH]c2cccc(N3CCN(Cc4cccc(-c5ccccc5)c4)CC3)c2o1 [polymorph δ, 7-[4-([1,1′-biphenyl]-3-ylmethyl)-1-piperazinyl]-2(3H)-benzoxazolone monomethanesulfonate]
- thermodynamic stability of the crystalline form [1]: metastable

Structure (SMILES): O=c1[nH]c2cccc(N3CCN(Cc4cccc(-c5ccccc5)c4)CC3)c2o1 [polymorph γ, 7-[4-([1,1′-biphenyl]-3-ylmethyl)-1-piperazinyl]-2(3H)-benzoxazolone monomethanesulfonate]
- thermodynamic stability of the crystalline form [1]: metastable

Structure (SMILES): O=c1[nH]c2cccc(N3CCN(Cc4cccc(-c5ccccc5)c4)CC3)c2o1 [bifeprunox, 7-[4-([1,1′-biphenyl]-3-ylmethyl)-1-piperazinyl]-2(3H)-benzoxazolone monomethanesulfonate]
- dissolution behavior [2]: dissolves almost immediately
- Bioavailability (predicted) ([3]; based on hepatic blood flow and oral clearance): 54%
- mean steady-state elimination half-life (t1/2) ([3]; following multiple dose administration): 14.4 hours and approximately 14 hours
- Cl/F ([3]; healthy subjects (HS)): 62.2 L/h
- blood plasma ratio ([3]; human, blood and plasma): 0.7 to 0.9
- Vd/F ([3]; human, in vivo): ~1300 L
- distribution of bifeprunox or its metabolites into red blood cells ([3]; human, in vivo): No extensive distribution
- half-life ([3]; human, in vivo): 14 h
- half-life ([3]; human, in vivo, multiple dose, 20 and 40 mg/day, mean ± SD, read-out: T1/2 (converted)): 14.4 ± 5.3 h
- AUC(0-t) ([3]; human, plasma, oral, 20 mg, multiple dose, read-out: mean AUC0-24): 382 ng·h/mL
- AUC(0-t) ([3]; human, plasma, oral, 40 mg, multiple dose, read-out: mean AUC0-24): 825 ng·h/mL
- Vd/F ([3]; human, plasma, oral, healthy subjects, read-out: Apparent volume of distribution (Vz/F)): 1300 L
- Cmax ([3]; human, plasma, oral, multiple dose, 20 and 40 mg/day, dose normalized to 20 mg, mean ± SD): 62.1 ± 38.2 ng/mL
- AUC(0-t) ([3]; human, plasma, oral, multiple dose, 20 and 40 mg/day, dose normalized to 20 mg, mean ± SD, read-out: AUC0-24): 402 ± 292 ng·h/mL
- Vd/F ([3]; human, plasma, oral, multiple dose, 20 and 40 mg/day, mean ± SD, read-out: Vzbw/F (apparent volume of distribution corrected by body weight)): 17.3 ± 9.4 L/kg
- Tmax ([3]; human, plasma, oral, multiple dose, 20 and 40 mg/day, median (range), read-out: Tmax): 2 h
- CL/F ([3]; human, plasma, po, multiple dose, 20 and 40 mg/day, mean ± SD, read-out: CLbw/F (weight normalized oral clearance) (converted)): 15 mL/min/kg
- Tmax ([3]; human, plasma, oral administration, read-out: median time to peak plasma concentration (Tmax)): ~2 h
- age-, gender-, body weight-, or race-related effects on PK ([3]; pooled analysis): no clinically relevant
- Steady-state mean oral clearance (CL/F) ([3]; steady state): 62.2 L/h
- half-life ([4]; human, in vivo, oral): 15 h
- Vd/F ([4]; human, in vivo, oral, read-out: Vz/F): ~1100 L
- Cl/F [4]: 57 L/h
- maximum tolerated single dose [5]: 0.5 mg
- Cmax increase with high-fat meal [6]: 29%
- Tmax delay with high-fat meal [6]: 1.5 h
- fraction unbound (plasma proteins): < 0.01
- metabolism in the liver by enzyme (CYP2C9 [7]): primarily
- metabolism in the liver by enzyme (CYP3A4 [8]): primarily
- metabolism in the liver by enzyme (In vitro metabolism): minor contribution
- AUC, fold higher than for extensive metabolizers ([9]; intermediate metabolizers): 3.7 fold
- Cmax, fold higher than for extensive metabolizers ([9]; intermediate metabolizers (reduced CYP2C activity)): 3.1 fold
- AUC, fold higher than for extensive metabolizers ([9]; slow metabolizers): 7.1 fold
- Cmax, fold higher than for extensive metabolizers ([9]; slow metabolizers (reduced CYP2C activity)): 3.9 fold
- effect on bifeprunox PK ([10]; administration of famotidine): no effect
- prothrombin time profile following warfarin, presence versus absence of bifeprunox ([10]; bifeprunox 40 mg/day with warfarin): comparable
- decrease of mean AUC0-24 [10, 13]: 54%
- decrease of mean Cmax [10, 13]: 50%
- reduction of bifeprunox exposure [10, 13]: approximately 50%
- increase of mean bifeprunox AUC0-24 [10, 14]: 3.7 fold
- increase of mean bifeprunox Cmax [10, 14]: 2.5 fold
- increase of bifeprunox AUC0-24 [10, 15]: 63%
- increase of bifeprunox Cmax [10, 15]: 44%
- effect of bifeprunox on the PK of lithium ([10]; co-administration with lithium): no effect
- effect on bifeprunox PK ([10]; co-administration with paroxetine): no effect
- effect of bifeprunox on the PK and pharmacodynamics of warfarin ([10]; co-administration with warfarin): no effect
- metabolism by enzyme, based on in vivo data (CYP2C9 [11]): primarily metabolized
- metabolism by enzyme, based on in vivo data (CYP3A4 [12]): to a lesser extent
